The results in this text go back to patent US5373000A, “7Beta-(thiadiazolyl)-2-iminoacetamido-3cephem compounds” (Eisai Co., Ltd., priority 1985, dated 1994).

The subject of one series is Staph. aureus 209-P. As to the kind of experiment: Antibacterial activities, MIC. To be noted: Staphylococcus aureus, read-out: MIC. It counts as cell-based.
A further series relates to Escher. coli NIHJ. As to the kind of experiment: Antibacterial activities, MIC. Type of series: cell-based. Conditions: Escherichia coli, read-out: MIC.
The next series relates to Kleb Pneumoniae EK-6. As to the kind of experiment: Antibacterial activities, MIC. Type of series: cell-based. To be noted: read-out: MIC.
The test system of a further series is Ser. marcescens ES-75. As to the kind of experiment: Antibacterial activities, MIC. It counts as cell-based. Conditions: Serratia marcescens, ES75, read-out: MIC.
Another series relates to Morg. morganii EP-14. As to the kind of experiment: Antibacterial activities, MIC. It counts as cell-based. To be noted: Morganella morganii, EP14, Morg. morganii EP-14; read-out: MIC.
In another series the test system is Pseud. aeruginosa EP-01. As to the kind of experiment: Antibacterial activities, MIC. Type of series: cell-based. To be noted: Pseudomonas aeruginosa, EP01, Pseud. aeruginosa EP-01; read-out: MIC.
The next series is described as follows: in vivo. To be noted: mouse, iv.

≈ marks a conversion by molar mass, not a printed value. Some results are limits rather than exact numbers.

For `CO/N=C(\C(=O)N[C@@H]1C(=O)N2C(C(=O)[O-])=C(/C=C/C[N+]3(C)CCN(C)CC3)CS[C@H]12)c1nsc(N)n1` [Example 33, 7β-[2-(5-Amino-1,2,4-thiadiazol-3-yl)-(Z)-2-methoxyiminoacetamido]-3-[(E)-3-(1,4-dimethyl-1-piperazinio)-1-propen-1-yl]-3-cephem-4-carboxylate], the MIC was 0.2 µg/mL (≈ 0.373 µM) in the series with Staph. aureus 209-P; at most 0.025 µg/mL in the series on Escher. coli NIHJ; at most 0.025 µg/mL with Kleb Pneumoniae EK-6; 0.05 µg/mL (≈ 0.0932 µM) with Ser. marcescens ES-75; at most 0.025 µg/mL in the series with Morg. morganii EP-14; 1.56 µg/mL (≈ 2.91 µM) in the series on Pseud. aeruginosa EP-01. In addition, in “in vivo”, the LD50 was at least 3000 mg/kg.
With `CO/N=C(\C(=O)N[C@@H]1C(=O)N2C(C(=O)[O-])=C(/C=C/C[N+](C)(C)[C@H](CO)C(N)=O)CS[C@H]12)c1nsc(N)n1` [Example 39, 7β-[2-(5-Amino-1,2,4-thiadiazol-3-yl)-(Z)-2-methoxyiminoacetamide]-3-[(E)-3-[(1R-carbamoyl-2-hydroxyethyl)dimethylammonio]-1-propenyl]-3-cephem-4-carboxylate], the MIC in the series with Staph. aureus 209-P is 0.4 µg/mL (≈ 0.721 µM); in the series on Escher. coli NIHJ, 0.05 µg/mL (≈ 0.0902 µM); in the series with Kleb Pneumoniae EK-6 it was at most 0.025 µg/mL; with Ser. marcescens ES-75 it was 0.1 µg/mL (≈ 0.18 µM); in the series with Morg. morganii EP-14, 0.05 µg/mL (≈ 0.0902 µM); in the series with Pseud. aeruginosa EP-01, 0.8 µg/mL (≈ 1.44 µM). The molecule further came in with an LD50 in “in vivo” of at least 3000 mg/kg.
With `CC[N+](C)(C/C=C/C1=C(C(=O)[O-])N2C(=O)[C@@H](NC(=O)/C(=N\OC)c3nsc(N)n3)[C@H]2SC1)CC(N)=O` (stereo partly shown) [Example 40], the MIC in the series with Staph. aureus 209-P was 0.2 µg/mL (≈ 0.371 µM); in the series on Escher. coli NIHJ it was at most 0.025 µg/mL; with Kleb Pneumoniae EK-6, at most 0.025 µg/mL; with Ser. marcescens ES-75 it was 0.05 µg/mL (≈ 0.0928 µM); in the series on Morg. morganii EP-14 it was at most 0.025 µg/mL; in the series on Pseud. aeruginosa EP-01, 0.8 µg/mL (≈ 1.49 µM). This molecule also showed an LD50 in “in vivo” of at least 3000 mg/kg.
`CO/N=C(\C(=O)N[C@@H]1C(=O)N2C(C(=O)[O-])=C(/C=C/C[N+]34CCOC(C)(C3)OCC4)CS[C@H]12)c1nsc(N)n1` [Example 41, 7β-[2-(5-Amino-1,2,4-thiadiazol-3-yl)-(Z)-2-methoxyiminoacetamide]-3-[(E)-3-(5-aza-1-methyl-2,8-diozabicyclo[3,3,1]nonan-5-io)-1-propenyl]-3-cephem-4-carboxylate]: the minimal inhibitory concentration (MIC) with Staph. aureus 209-P turned out to be 0.4 µg/mL (≈ 0.707 µM); in the series with Escher. coli NIHJ it was 0.05 µg/mL (≈ 0.0884 µM); in the series with Kleb Pneumoniae EK-6 it was 0.05 µg/mL (≈ 0.0884 µM); with Ser. marcescens ES-75, 0.1 µg/mL (≈ 0.177 µM); with Morg. morganii EP-14 it was 0.05 µg/mL (≈ 0.0884 µM); with Pseud. aeruginosa EP-01, 1.56 µg/mL (≈ 2.76 µM). The median lethal dose (LD50) in the series “in vivo” was at least 3000 mg/kg.
